Test results: patent publication US10485885B2, “Compositions and methods for delivery of agents” (ModernaTX, Inc., priority 2015, dated 2019)

System: circulating B cells and monocytes
Experiment: B cell, B1a cell and monocyte frequencies and activation in non-human primate PBMCs
Assay type: in vivo, cynomolgus monkeys
Method: The percentage of monocyte activation was also measured at pre-bleed, day 1, day 22, day 43, and day 44 of the study.
FIGS. 84A and 84B show the EPO expression after the first injection and after the fifth injection. In particular, the concentration of EPO (ng/mL) was measured at 2 hours, 6 hours, 12 hours, 24 hours, and 48 hours following the first injection and the fifth injection. FIGS. 85A-85E show the EPO expression for each of the co-medications on day 1 and day 29 of the study. In particular, the concentration of EPO (ng/mL) was measured on day 1 and day 29 at 2 hours, 6 hours, 12 hours, 24 hours, and 48 hours for each co-medication group. Immune cell populations were also measured. Specifically, the percentage of B cells (FIG. 86A), B1a cells (FIG. 86B), and monocytes (FIG. 86C) in PBMCs was measured for each co-medication group at day-7, 24 hours post first injection, and 24 hours post fifth injection. B cell activation is reflected in FIG. 87. The percentage of activated B cells in circulating B cells was measured for each co-medication group at day-7, 24 hours post first injection, and 24 hours post fifth injection.
Monocyte activation is reflected in FIG. 88. The percentage of activated monocytes/macrophages in circulating PBMCs was measured for each co-medication group at day-7, 24 hours post first injection, and 24 hours post fifth injection. […] An increase in the percentage of activated monocytes/macrophages post injection was only observed in the fingolimod co-medication group.

[1] = co-medication with hEPO mRNA MC3-LNP, 24 hours post first injection

Row | Frequencies of monocytes in PBMCs (co-medication) | Percentage of activated monocytes/macrophages post injection (co-medication) | B cell frequencies in PBMCs (cynomolgus monkey, in vivo) | Percentage of activated B cells in circulating B cells (cynomolgus monkey, in vivo) | Structure (SMILES) | Percentage of activated B cells in circulating B cells [1]
1 | significant decrease | increase | – | – | CCCCCCCCc1ccc(CCC(N)(CO)CO)cc1 [fingolimod] | normal B cell activation similar to that of the control group
2 | – | – | – | – | COc1cc(Nc2ncc(F)c(Nc3ccc4c(n3)N(COP(=O)(O)O)C(=O)C(C)(C)O4)n2)cc(OC)c1OC [fostamatinib] | normal B cell activation similar to that of the control group
3 | – | – | slightly reduced | B cell activation was not observed | CC[C@H](Nc1ncnc2[nH]cnc12)c1nc2cccc(F)c2c(=O)n1-c1ccccc1 [idelalisib] | –
